Tests used:
JAK2 = JAK2 (Homo sapiens (Human), UniProt O60674); experiment: LanthaScreen JAK biochemical assay, JAK2
Method: (§1) A panel of four LanthaScreen JAK biochemical assays (JAK1, 2, 3 and Tyk2) were carried in a common kinase reaction buffer (50 mM HEPES, pH 7.5, 0.01% Brij-35, 10 mM MgCl2, and 1 mM EGTA). Recombinant GST-tagged JAK enzymes and a GFP-tagged STAT1 peptide substrate were obtained from Life Technologies.

JAK1 = JAK1 (Homo sapiens (Human), UniProt P23458); experiment: LanthaScreen JAK biochemical assay, JAK1
Method: as §1

Tyk2 = Tyk2 (Homo sapiens (Human), UniProt P29597); experiment: LanthaScreen JAK biochemical assay, Tyk2
Method: as §1

JAK3 = JAK3 (Homo sapiens (Human), UniProt P52333); experiment: LanthaScreen JAK biochemical assay, JAK3
Method: as §1

[1] = test system: IL-13 induced STAT6 phosphorylation in HT-29 human colorectal adenocarcinoma cells; experiment: Cellular JAK potency assay: inhibition of IL-13 induced STAT6 phosphorylation; assay type: cell-based; settings: IL-13 induced STAT6 phosphorylation, HT-29 cells
Method: The potency of test compounds for inhibition of the JAK-dependent cytokine interleuken-13 (IL-13) was assessed by measuring IL-13 (IL-13, R&D Systems) induced STAT6 phosphorylation in HT-29 human colorectal adenocarcinoma cells (ATCC).
The anti-STAT6 antibody (Cell Signaling Technologies) was conjugated to AlphaScreen acceptor beads (Perkin Elmer), while the anti-pSTAT6 (pTyr641) antibody (Cell Signaling Technologies) was biotinylated using EZ-Link Sulfo-NHS-Biotin (Thermo Scientific).
HT-29 cells were grown at 37° C. in a 5% CO2 humidified incubator in McCoy's 5a Modified medium (ATCC) supplemented with 10% FBS (Hyclone), 100 U/mL penicillin, 100 μg/mL streptomycin (Life Technologies), and 2 mM GlutaMAX (Life Technologies). On day 1 of the assay, cells were seeded at a 7,500 cells/well density in white poly-D-lysine-coated 384-well plates (Corning) with 25 μL medium, and were allowed to adhere overnight in the incubator. On day 2 of the assay, the medium was removed and replaced with 12 μL of assay buffer (Hank's Balanced Salt Solution/HBSS, 25 mM HEPES, and 1 mg/ml bovine serum albumin/BSA) containing dose-responses of test compounds. Compounds were serially diluted in DMSO and then diluted another 1000-fold in media to bring the final DMSO concentration to 0.1%. Cells were incubated with test compounds at 37° C. for 1 h, and followed by the addition of 12 μL of pre-warmed IL-13 (12 ng/ml in assay buffer) for stimulation. After incubating at 37° C. for 30 min, the assay buffer (containing compound and IL-13) was removed, and 10 μL of cell lysis buffer (25 mM HEPES, 0.1% SDS, 1% NP-40, 5 mM MgCl2, 1.3 mM EDTA, 1 mM EGTA, and supplement with Complete Ultra mini protease inhibitors and PhosSTOP from Roche Diagnostics). The plates were shaken at ambient temperature for 30 min before the addition of detection reagents. A mixture of biotin-anti-pSTAT6 and anti-STAT6 conjugated acceptor beads was added first and incubated at ambient temperature for 2 h, followed by the addition of streptavidin conjugated donor beads (Perkin Elmer). After a minimum of 2 h incubation, the assay plates were read on the EnVision plate reader.
Results were expressed as the negative logarithm of the IC50 value, pIC50.

Chain of JAK2 (O60674 whole entry): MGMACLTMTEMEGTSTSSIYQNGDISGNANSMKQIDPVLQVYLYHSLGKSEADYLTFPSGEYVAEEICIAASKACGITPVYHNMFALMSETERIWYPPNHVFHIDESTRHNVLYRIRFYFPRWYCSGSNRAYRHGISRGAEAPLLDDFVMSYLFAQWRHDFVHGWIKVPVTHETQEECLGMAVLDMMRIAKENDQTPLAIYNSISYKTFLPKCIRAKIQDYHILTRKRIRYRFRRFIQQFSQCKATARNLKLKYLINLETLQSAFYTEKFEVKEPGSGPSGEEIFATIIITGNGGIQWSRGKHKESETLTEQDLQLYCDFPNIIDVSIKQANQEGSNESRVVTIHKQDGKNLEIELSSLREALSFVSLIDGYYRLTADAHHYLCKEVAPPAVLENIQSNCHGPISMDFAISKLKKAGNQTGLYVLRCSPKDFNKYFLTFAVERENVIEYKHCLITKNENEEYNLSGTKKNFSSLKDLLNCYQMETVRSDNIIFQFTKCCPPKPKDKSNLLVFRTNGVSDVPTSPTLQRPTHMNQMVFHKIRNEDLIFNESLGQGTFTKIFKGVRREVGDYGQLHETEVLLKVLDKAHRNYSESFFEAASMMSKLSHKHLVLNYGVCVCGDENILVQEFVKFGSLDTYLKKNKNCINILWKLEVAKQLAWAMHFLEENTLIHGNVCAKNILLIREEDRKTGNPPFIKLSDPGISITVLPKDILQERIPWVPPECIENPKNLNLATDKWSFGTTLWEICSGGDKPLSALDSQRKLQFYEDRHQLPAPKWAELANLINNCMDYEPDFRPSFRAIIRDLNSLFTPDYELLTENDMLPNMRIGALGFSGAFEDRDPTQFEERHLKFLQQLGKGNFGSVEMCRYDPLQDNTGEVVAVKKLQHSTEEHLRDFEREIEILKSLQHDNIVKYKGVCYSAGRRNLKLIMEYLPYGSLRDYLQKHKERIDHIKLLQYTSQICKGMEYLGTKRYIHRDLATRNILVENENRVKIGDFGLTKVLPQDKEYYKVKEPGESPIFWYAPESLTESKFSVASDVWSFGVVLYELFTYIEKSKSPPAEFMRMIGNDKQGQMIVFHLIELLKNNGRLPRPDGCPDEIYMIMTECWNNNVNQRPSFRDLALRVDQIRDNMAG
Chain of Tyk2 (P29597 whole entry): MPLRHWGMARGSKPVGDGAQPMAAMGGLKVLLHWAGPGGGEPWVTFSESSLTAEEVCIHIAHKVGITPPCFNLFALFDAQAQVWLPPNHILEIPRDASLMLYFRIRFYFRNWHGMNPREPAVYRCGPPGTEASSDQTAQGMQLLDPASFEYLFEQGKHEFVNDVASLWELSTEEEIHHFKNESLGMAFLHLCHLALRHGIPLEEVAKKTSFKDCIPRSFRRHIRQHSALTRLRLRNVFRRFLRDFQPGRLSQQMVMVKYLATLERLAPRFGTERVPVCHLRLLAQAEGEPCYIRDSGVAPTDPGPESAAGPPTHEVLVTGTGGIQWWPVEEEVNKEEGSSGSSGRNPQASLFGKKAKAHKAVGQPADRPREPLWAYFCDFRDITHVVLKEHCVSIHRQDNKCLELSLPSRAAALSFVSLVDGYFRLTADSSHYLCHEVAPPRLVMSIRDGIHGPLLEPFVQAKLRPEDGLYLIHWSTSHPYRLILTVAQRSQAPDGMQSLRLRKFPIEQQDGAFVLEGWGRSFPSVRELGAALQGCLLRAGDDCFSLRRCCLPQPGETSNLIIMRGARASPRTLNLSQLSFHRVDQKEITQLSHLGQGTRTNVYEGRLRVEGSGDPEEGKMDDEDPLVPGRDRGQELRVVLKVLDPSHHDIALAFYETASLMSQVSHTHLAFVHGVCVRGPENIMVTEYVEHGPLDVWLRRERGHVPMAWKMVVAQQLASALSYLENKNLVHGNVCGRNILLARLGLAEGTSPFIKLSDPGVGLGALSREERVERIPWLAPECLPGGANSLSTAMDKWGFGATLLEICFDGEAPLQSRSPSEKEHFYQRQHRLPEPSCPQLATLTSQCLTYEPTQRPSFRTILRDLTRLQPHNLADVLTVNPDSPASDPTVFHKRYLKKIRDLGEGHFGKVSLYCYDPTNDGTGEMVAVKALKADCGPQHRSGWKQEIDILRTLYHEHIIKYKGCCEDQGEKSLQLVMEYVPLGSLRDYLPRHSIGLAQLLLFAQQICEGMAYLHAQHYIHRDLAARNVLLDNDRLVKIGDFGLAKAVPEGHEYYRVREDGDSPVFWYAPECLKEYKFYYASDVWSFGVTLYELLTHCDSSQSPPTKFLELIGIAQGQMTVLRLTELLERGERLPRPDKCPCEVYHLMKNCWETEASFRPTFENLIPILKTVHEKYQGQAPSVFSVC
Chain of JAK1 (P23458 whole entry): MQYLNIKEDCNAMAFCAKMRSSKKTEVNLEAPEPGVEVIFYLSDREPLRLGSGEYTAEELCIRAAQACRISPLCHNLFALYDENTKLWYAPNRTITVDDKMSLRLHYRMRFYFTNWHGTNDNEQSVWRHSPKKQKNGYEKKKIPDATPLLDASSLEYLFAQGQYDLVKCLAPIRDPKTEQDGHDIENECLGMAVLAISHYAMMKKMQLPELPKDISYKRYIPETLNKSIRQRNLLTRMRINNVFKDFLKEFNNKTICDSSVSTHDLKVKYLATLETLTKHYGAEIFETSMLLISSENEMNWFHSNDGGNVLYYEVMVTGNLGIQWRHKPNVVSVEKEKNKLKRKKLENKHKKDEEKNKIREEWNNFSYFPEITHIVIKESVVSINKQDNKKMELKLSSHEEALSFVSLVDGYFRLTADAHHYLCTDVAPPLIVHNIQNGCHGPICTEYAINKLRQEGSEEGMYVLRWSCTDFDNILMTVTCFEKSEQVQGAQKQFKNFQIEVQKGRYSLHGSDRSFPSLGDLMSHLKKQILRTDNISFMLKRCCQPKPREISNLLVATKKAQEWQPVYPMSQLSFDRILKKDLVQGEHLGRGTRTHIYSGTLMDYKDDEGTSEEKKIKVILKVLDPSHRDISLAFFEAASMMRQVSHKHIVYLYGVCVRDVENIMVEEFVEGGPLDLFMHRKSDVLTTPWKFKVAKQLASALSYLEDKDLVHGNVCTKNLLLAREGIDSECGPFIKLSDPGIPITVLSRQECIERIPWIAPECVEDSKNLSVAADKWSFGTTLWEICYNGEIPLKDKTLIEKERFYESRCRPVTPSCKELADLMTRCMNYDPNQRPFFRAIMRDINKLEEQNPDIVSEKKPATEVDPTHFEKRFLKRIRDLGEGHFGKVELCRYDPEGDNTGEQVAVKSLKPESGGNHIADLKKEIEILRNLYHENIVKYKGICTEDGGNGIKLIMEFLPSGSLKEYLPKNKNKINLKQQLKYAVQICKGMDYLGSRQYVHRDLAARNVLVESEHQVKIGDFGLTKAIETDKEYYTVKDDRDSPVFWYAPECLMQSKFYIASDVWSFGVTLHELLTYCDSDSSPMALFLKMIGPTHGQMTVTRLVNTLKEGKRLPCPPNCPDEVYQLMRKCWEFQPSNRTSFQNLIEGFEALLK
Chain of JAK3 (P52333 whole entry): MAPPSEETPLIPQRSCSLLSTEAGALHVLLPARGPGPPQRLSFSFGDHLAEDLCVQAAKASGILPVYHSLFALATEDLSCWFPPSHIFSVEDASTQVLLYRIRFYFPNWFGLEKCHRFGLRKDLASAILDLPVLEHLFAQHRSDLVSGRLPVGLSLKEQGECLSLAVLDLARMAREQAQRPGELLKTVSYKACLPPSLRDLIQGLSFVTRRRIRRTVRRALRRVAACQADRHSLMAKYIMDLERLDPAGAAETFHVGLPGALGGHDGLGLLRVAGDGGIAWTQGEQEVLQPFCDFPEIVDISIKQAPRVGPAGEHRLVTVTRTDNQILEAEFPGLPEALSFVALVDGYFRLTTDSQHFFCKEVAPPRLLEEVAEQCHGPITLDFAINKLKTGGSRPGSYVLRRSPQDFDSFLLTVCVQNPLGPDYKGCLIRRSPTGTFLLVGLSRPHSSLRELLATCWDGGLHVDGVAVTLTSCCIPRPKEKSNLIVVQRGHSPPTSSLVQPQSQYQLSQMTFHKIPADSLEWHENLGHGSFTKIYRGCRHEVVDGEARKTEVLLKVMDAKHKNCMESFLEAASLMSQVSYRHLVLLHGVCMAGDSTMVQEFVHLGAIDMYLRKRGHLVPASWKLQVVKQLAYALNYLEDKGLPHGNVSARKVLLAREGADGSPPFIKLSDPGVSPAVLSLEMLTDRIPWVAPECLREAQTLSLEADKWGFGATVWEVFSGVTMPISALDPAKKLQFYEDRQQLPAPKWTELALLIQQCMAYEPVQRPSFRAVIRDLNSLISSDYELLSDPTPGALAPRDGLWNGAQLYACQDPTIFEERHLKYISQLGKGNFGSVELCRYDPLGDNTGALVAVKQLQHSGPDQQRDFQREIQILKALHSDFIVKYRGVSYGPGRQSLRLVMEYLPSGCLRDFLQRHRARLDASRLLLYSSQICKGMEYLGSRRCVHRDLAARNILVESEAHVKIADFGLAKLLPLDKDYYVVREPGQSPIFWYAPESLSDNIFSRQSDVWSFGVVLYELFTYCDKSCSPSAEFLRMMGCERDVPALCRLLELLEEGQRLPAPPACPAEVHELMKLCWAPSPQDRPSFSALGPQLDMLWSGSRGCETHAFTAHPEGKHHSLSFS

| SMILES | JAK 2 (pKi) (JAK2) | JAK 1 (pKi) (JAK1) | Tyk 2 (pKi) (Tyk2) | JAK 3 (pKi) (JAK3) | HT-29 (pIC50) [1] | Ki (JAK1; read-out: JAK 1 (pKi) (converted)) | IC50 ([1]; Homo sapiens, read-out: HT-29 (pIC50) (converted)) |
| --- | --- | --- | --- | --- | --- | --- | --- |
| COc1cc(Nc2cc(CO)[nH]n2)nc(N(C)[C@@H]2C[C@H]3CCC[C@@H](C2)N3C(=O)C2CCCC2)n1 [Example 3-7, cyclopentyl((1R,3s,5S)-3-((4-((5-(hydroxymethyl)-1H-pyrazol-3-yl)amino)-6-methoxypyrimidin-2-yl)(methyl)amino)-9-azabicyclo[3.3.1]nonan-9-yl)methanone] | B (B represents a pKi value between 9 and 10 (Ki between 1 nM and 0.1 nM)) | B (B represents a pKi value between 9 and 10 (Ki between 1 nM and 0.1 nM)) | B (B represents a pKi value between 9 and 10 (Ki between 1 nM and 0.1 nM)) | – | – | – | – |
| COc1cc(Nc2cc(CO)[nH]n2)nc(N(C)[C@@H]2C[C@H]3CCC[C@@H](C2)N3S(=O)(=O)CCC#N)n1 [Example 1-12, 3-(((1R,3s,5S)-3-((4-((5-(hydroxymethyl)-1H-pyrazol-3-yl)amino)-6-methoxypyrimidin-2-yl)(methyl)amino)-9-azabicyclo[3.3.1]nonan-9-yl)-sulfonyl)propanenitrile] | B (B represents a pKi value between 9 and 10 (Ki between 1 nM and 0.1 nM)) | B (B represents a pKi value between 9 and 10 (Ki between 1 nM and 0.1 nM)) | B (B represents a pKi value between 9 and 10 (Ki between 1 nM and 0.1 nM)) | C (C represents a pKi value between 8 and 9 (Ki between 10 nM and 1 nM)) | – | – | – |
| COc1cc(Nc2cc(CO)[nH]n2)nc(N(C)[C@@H]2C[C@H]3CCC[C@@H](C2)N3C(=O)OCC(C)C)n1 [Example 3-2, isobutyl (1R,3s,5S)-3-((4-((5-(hydroxymethyl)-1H-pyrazol-3-yl)amino)-6-methoxypyrimidin-2-yl)(methyl)amino)-9-azabicyclo[3.3.1]nonane-9-carboxylate] | B (B represents a pKi value between 9 and 10 (Ki between 1 nM and 0.1 nM)) | B (B represents a pKi value between 9 and 10 (Ki between 1 nM and 0.1 nM)) | B (B represents a pKi value between 9 and 10 (Ki between 1 nM and 0.1 nM)) | – | – | – | – |
| COc1cc(Nc2cc(CO)[nH]n2)nc(N(C)[C@@H]2C[C@H]3CCC[C@@H](C2)N3C(=O)CC2CC2)n1 [Example 3-5, 2-cyclopropyl-1-((1R,3s,5S)-3-((4-((5-(hydroxymethyl)-1H-pyrazol-3-yl)amino)-6-methoxypyrimidin-2-yl)(methyl)amino)-9-azabicyclo[3.3.1]nonan-9-yl)ethan-1-one] | B (B represents a pKi value between 9 and 10 (Ki between 1 nM and 0.1 nM)) | B (B represents a pKi value between 9 and 10 (Ki between 1 nM and 0.1 nM)) | B (B represents a pKi value between 9 and 10 (Ki between 1 nM and 0.1 nM)) | – | – | – | – |
| COc1cc(Nc2cc(CO)[nH]n2)nc(N(C)[C@@H]2C[C@H]3CCC[C@@H](C2)N3CC2(C#N)CC2)n1 [Example 2-6, 1-(((1R,3s,5S)-3-((4-((5-(hydroxymethyl)-1H-pyrazol-3-yl)amino)-6-methoxypyrimidin-2-yl)(methyl)amino)-9-azabicyclo[3.3.1]nonan-9-yl)methyl)cyclopropane-1-carbonitrile] | B (B represents a pKi value between 9 and 10 (Ki between 1 nM and 0.1 nM)) | B (B represents a pKi value between 9 and 10 (Ki between 1 nM and 0.1 nM)) | B (B represents a pKi value between 9 and 10 (Ki between 1 nM and 0.1 nM)) | C (C represents a pKi value between 8 and 9 (Ki between 10 nM and 1 nM)) | – | – | – |
| COC(=O)N1[C@@H]2CCC[C@H]1C[C@H](N(C)c1nc(Nc3cc(CO)[nH]n3)cc(OC)n1)C2 [Example 3-3, methyl (1R,3s,5S)-3-((4-((5-(hydroxymethyl)-1H-pyrazol-3-yl)amino)-6-methoxypyrimidin-2-yl)(methyl)amino)-9-azabicyclo[3.3.1]nonane-9-carboxylate] | B (B represents a pKi value between 9 and 10 (Ki between 1 nM and 0.1 nM)) | B (B represents a pKi value between 9 and 10 (Ki between 1 nM and 0.1 nM)) | C (C represents a pKi value between 8 and 9 (Ki between 10 nM and 1 nM)) | – | – | – | – |
| COc1cc(Nc2cc(CO)[nH]n2)nc(N(C)[C@@H]2C[C@H]3CCC[C@@H](C2)N3C(=O)C2CCC2)n1 [Example 3-8, cyclobutyl((1R,3s,5S)-3-((4-((5-(hydroxymethyl)-1H-pyrazol-3-yl)amino)-6-methoxypyrimidin-2-yl)(methyl)amino)-9-azabicyclo[3.3.1]nonan-9-yl)methanone] | B (B represents a pKi value between 9 and 10 (Ki between 1 nM and 0.1 nM)) | B (B represents a pKi value between 9 and 10 (Ki between 1 nM and 0.1 nM)) | B (B represents a pKi value between 9 and 10 (Ki between 1 nM and 0.1 nM)) | – | – | – | – |
| COc1cc(Nc2cc(CO)[nH]n2)nc(N(C)[C@@H]2C[C@H]3CCC[C@@H](C2)N3C(=O)N2CCOCC2)n1 [Example 3-4, ((1R,3s,5S)-3-((4-((5-(hydroxymethyl)-1H-pyrazol-3-yl)amino)-6-methoxy-pyrimidin-2-yl)(methyl)amino)-9-azabicyclo[3.3.1]nonan-9-yl)(morpholino)methanone] | B (B represents a pKi value between 9 and 10 (Ki between 1 nM and 0.1 nM)) | B (B represents a pKi value between 9 and 10 (Ki between 1 nM and 0.1 nM)) | B (B represents a pKi value between 9 and 10 (Ki between 1 nM and 0.1 nM)) | – | – | – | – |
| COc1cc(Nc2cc(CO)[nH]n2)nc(N(C)[C@@H]2C[C@H]3CCC[C@@H](C2)N3C(C)=O)n1 [Example 3-6] | B (B represents a pKi value between 9 and 10 (Ki between 1 nM and 0.1 nM)) | B (B represents a pKi value between 9 and 10 (Ki between 1 nM and 0.1 nM)) | C (C represents a pKi value between 8 and 9 (Ki between 10 nM and 1 nM)) | – | – | – | – |
| COc1cc(Nc2cc(CO)[nH]n2)nc(N(C)[C@@H]2C[C@H]3CCC[C@@H](C2)N3Cc2ccnc(C#N)c2)n1 [Example 2-8, 4-(((1R,3s,5S)-3-((4-((5-(hydroxymethyl)-1H-pyrazol-3-yl)amino)-6-methoxypyrimidin-2-yl)(methyl)amino)-9-azabicyclo[3.3.1]nonan-9-yl)methyl)picolinonitrile] | – | B (B represents a pKi value between 9 and 10 (Ki between 1 nM and 0.1 nM)) | – | – | B (B represents a pIC50 value between 6.7 and 7.5 (IC50 between 200 nM and 32 nM)) | – | – |
| COc1cc(Nc2cc(CO)[nH]n2)nc(N[C@@H]2C[C@H]3CCC[C@@H](C2)N3Cc2ccnc(C#N)c2)n1 [Example 2-3, 4-(((1R,3s,5S)-3-((4-((5-(hydroxymethyl)-1H-pyrazol-3-yl)amino)-6-methoxypyrimidin-2-yl)amino)-9-azabicyclo[3.3.1]nonan-9-yl)methyl)picolinonitrile] | – | B (B represents a pKi value between 9 and 10 (Ki between 1 nM and 0.1 nM)) | – | – | B (B represents a pIC50 value between 6.7 and 7.5 (IC50 between 200 nM and 32 nM)) | – | – |
| COc1cc(Nc2cc(CO)[nH]n2)nc(N[C@@H]2C[C@H]3CC[C@@H](C2)N3S(=O)(=O)c2cccnc2)n1 [Example 1-3] | – | – | – | – | – | 1 to 10 nM | 200 to 1000 nM |
| COc1cc(Nc2cc(CO)[nH]n2)nc(N[C@@H]2C[C@H]3CCC[C@@H](C2)N3Cc2ccncc2)n1 [Example 2-2] | – | B (B represents a pKi value between 9 and 10 (Ki between 1 nM and 0.1 nM)) | – | – | B (B represents a pIC50 value between 6.7 and 7.5 (IC50 between 200 nM and 32 nM)) | – | – |
| COc1cc(Nc2cc(CO)[nH]n2)nc(N[C@@H]2C[C@H]3CC[C@@H](C2)N3Cc2ccncc2)n1 [Example 2-1] | – | C (C represents a pKi value between 8 and 9 (Ki between 10 nM and 1 nM)) | – | – | C (C represents a pIC50 value between 6 and 6.7 (IC50 between 1 μM and 200 nM)) | – | – |
